From PubChem BioAssay AID330 (DTP/NCI, 2004)
Values joined by “and” are separate entries in the source; they are usually repeats but may differ in a detail not shown here. Identical values can stand only once. Inconclusive results and toxic doses are left out.

Test system: P388 leukemia ip, CD2F1 mice, survival T/C
Assay: NCI In Vivo Anticancer Drug Screen. Data for tumor model P388 Leukemia (intraperitoneal) in CD2F1 (CDF1) mice
Details: endpoint: median survival time, higher = longer survival
Method in brief: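 Mice carrying the transplanted tumor received test compound or vehicle. Survival was recorded in each group, and the value is the treated-group measurement divided by that of the vehicle-treated control group.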

[1] = dose: 50.0 mg/kg/injection, schedule: Q01DX005 (ip), vehicle: saline with Tween-80
[2] = dose: 100.0 mg/kg/injection, schedule: Q01DX005 (ip), vehicle: saline with Tween-80
[3] = dose: 200.0 mg/kg/injection, schedule: Q01DX005 (ip), vehicle: saline with Tween-80
[4] = dose: 50.0 mg/kg/injection, schedule: Q04DX003 (ip), vehicle: Klucel (hydroxypropylcellulose) (HPC)
[5] = dose: 100.0 mg/kg/injection, schedule: Q04DX003 (ip), vehicle: Klucel (hydroxypropylcellulose) (HPC)
[6] = dose: 200.0 mg/kg/injection, schedule: Q04DX003 (ip), vehicle: Klucel (hydroxypropylcellulose) (HPC)
[7] = dose: 50.0 mg/kg/injection, schedule: Q01DX005 (ip), vehicle: Klucel (hydroxypropylcellulose) (HPC)
[8] = dose: 100.0 mg/kg/injection, schedule: Q01DX005 (ip), vehicle: Klucel (hydroxypropylcellulose) (HPC)
[9] = dose: 200.0 mg/kg/injection, schedule: Q01DX005 (ip), vehicle: Klucel (hydroxypropylcellulose) (HPC)

SMILES: O=c1oc2ccccc2cc1S(=O)(=O)c1ccccc1
- T/C (dose: 60.0 mg/kg/injection, schedule: Q01DX005 (ip), vehicle: saline with Tween-80): 94 % of control
- T/C (dose: 120.0 mg/kg/injection, schedule: Q01DX005 (ip), vehicle: saline with Tween-80): 91 % of control
- T/C (dose: 240.0 mg/kg/injection, schedule: Q01DX005 (ip), vehicle: saline with Tween-80): 91 % of control

SMILES: COc1ccc2c(c1[N+](=O)[O-])CC[C@@H]1[C@@H]2CC[C@]2(C)C(=O)CC[C@@H]12
- T/C (dose: 25.0 mg/kg/injection, schedule: Q01DX005 (ip), vehicle: saline with Tween-80): 103 % of control
- T/C [1]: 105 % of control
- T/C [2]: 99 % of control
- T/C [3]: 86 % of control

SMILES: CC[CH](C)[Sn](=[O])[c]1ccccc1 (configuration not stated)
- T/C (dose: 0.39 mg/kg/injection, schedule: Q01DX009 (ip), vehicle: saline): 101 % of control
- T/C (dose: 0.79 mg/kg/injection, schedule: Q01DX009 (ip), vehicle: saline): 117 % of control
- T/C (dose: 3.12 mg/kg/injection, schedule: Q01DX009 (ip), vehicle: saline with Tween-80): 153 % of control

SMILES: COc1ccc(CC(=O)O)cc1OC (tested in a mixture with another compound)
- T/C (dose: 100.0 mg/kg/injection, schedule: Q01DX009 (ip), vehicle: saline sonified): 100 % of control
- T/C (dose: 200.0 mg/kg/injection, schedule: Q01DX009 (ip), vehicle: saline sonified): 100 % of control
- T/C (dose: 400.0 mg/kg/injection, schedule: Q01DX009 (ip), vehicle: saline sonified): 100 % of control

SMILES: COc1cc2c(cc1OC)C1C(=O)c3ccc4c(c3OC1CO2)CC(C(C)(O)CO)O4 (configuration not stated)
- T/C (dose: 10.0 mg/kg/injection, schedule: Q01DX005 (ip), vehicle: DMSO): 108 % of control
- T/C (dose: 20.0 mg/kg/injection, schedule: Q01DX005 (ip), vehicle: DMSO): 107 % of control

SMILES: N#C/C(=N\NC(=O)c1cccs1)c1ccccc1Cl
- T/C [1]: 93 % of control
- T/C [2]: 103 % of control
- T/C [3]: 106 % of control

SMILES: COc1n[n+]([O-])c(Cl)cc1[N+](=O)[O-]
- T/C (dose: 12.5 mg/kg/injection, schedule: Q01DX009 (ip), vehicle: saline with Tween-80): 109 % of control
- T/C (dose: 25.0 mg/kg/injection, schedule: Q01DX009 (ip), vehicle: saline with Tween-80): 108 % of control
- T/C (dose: 50.0 mg/kg/injection, schedule: Q01DX009 (ip), vehicle: saline with Tween-80): 117 % of control
- T/C (dose: 100.0 mg/kg/injection, schedule: Q01DX009 (ip), vehicle: saline with Tween-80): 113 % of control

SMILES: CCCCCCCCCCCCCCC/C([O-])=N/[N+](C)(C)CC(C)O (configuration not stated)
- T/C [4]: 99 % of control
- T/C [5]: 99 % of control
- T/C [6]: 99 % of control

SMILES: COc1cccc2c1C(=O)c1c(O)c3c(c(O)c1C2=O)CC(O)(C(C)=O)CC3OC1CC(NC(=O)C(N)CCCCN)C(O)C(C)O1 (configuration not stated)
- T/C (dose: 2.5 mg/kg/injection, schedule: Q04DX003 (ip), vehicle: water): 101 % of control
- T/C (dose: 5.0 mg/kg/injection, schedule: Q04DX003 (ip), vehicle: water): 101 % of control and 103 % of control
- T/C (dose: 10.0 mg/kg/injection, schedule: Q04DX003 (ip), vehicle: distilled water + Tween-80): 95 % of control
- T/C (dose: 10.0 mg/kg/injection, schedule: Q04DX003 (ip), vehicle: water): 101 % of control and 109 % of control
- T/C (dose: 20.0 mg/kg/injection, schedule: Q04DX003 (ip), vehicle: distilled water + Tween-80): 96 % of control
- T/C (dose: 20.0 mg/kg/injection, schedule: Q04DX003 (ip), vehicle: water): 109 % of control and 118 % of control
- T/C (dose: 40.0 mg/kg/injection, schedule: Q04DX003 (ip), vehicle: distilled water + Tween-80): 105 % of control
- T/C (dose: 40.0 mg/kg/injection, schedule: Q04DX003 (ip), vehicle: water): 106 % of control and 122 % of control
- T/C (dose: 80.0 mg/kg/injection, schedule: Q04DX003 (ip), vehicle: distilled water + Tween-80): 112 % of control
- T/C (dose: 80.0 mg/kg/injection, schedule: Q04DX003 (ip), vehicle: water): 118 % of control

SMILES: COc1cccc2c(NCCCCCCCCNc3c4ccccc4nc4c(OC)cccc34)c3ccccc3nc12
- T/C (dose: 1.25 mg/kg/injection, schedule: Q01DX009 (ip), vehicle: lactic acid): 169 % of control
- T/C (dose: 2.5 mg/kg/injection, schedule: Q01DX009 (ip), vehicle: lactic acid): 189 % of control
- T/C (dose: 5.0 mg/kg/injection, schedule: Q01DX009 (ip), vehicle: other): 154 % of control

SMILES: COc1ccc(OC)c(NC(=O)C2=C(C)NC(C)=C(C(=O)Nc3cc(OC)ccc3OC)C2c2cccc([N+](=O)[O-])c2)c1
- T/C (dose: 7.5 mg/kg/injection, schedule: Q01DX005 (ip), vehicle: Klucel (hydroxypropylcellulose) (HPC)): 101 % of control
- T/C (dose: 15.0 mg/kg/injection, schedule: Q01DX005 (ip), vehicle: Klucel (hydroxypropylcellulose) (HPC)): 94 % of control
- T/C (dose: 30.0 mg/kg/injection, schedule: Q01DX005 (ip), vehicle: Klucel (hydroxypropylcellulose) (HPC)): 92 % of control

SMILES: C=C(C)c1nc(N)nc(N2CCCCC2)n1
- T/C [7]: 98 % of control
- T/C [8]: 102 % of control
- T/C [9]: 117 % of control

SMILES: Cc1cc2nc(NN=O)sc2cc1C
- T/C (dose: 3.12 mg/kg/injection, schedule: Q01DX009 (ip), vehicle: water): 109 % of control
- T/C (dose: 6.25 mg/kg/injection, schedule: Q01DX009 (ip), vehicle: water): 97 % of control
- T/C (dose: 12.5 mg/kg/injection, schedule: Q01DX009 (ip), vehicle: water): 106 % of control
- T/C (dose: 25.0 mg/kg/injection, schedule: Q01DX009 (ip), vehicle: water): 104 % of control (2×) and 97 % of control
- T/C (dose: 50.0 mg/kg/injection, schedule: Q01DX009 (ip), vehicle: water): 102 % of control and 103 % of control and 108 % of control
- T/C (dose: 100.0 mg/kg/injection, schedule: Q01DX009 (ip), vehicle: water): 123 % of control

SMILES: O=C1c2cccc3cccc(c23)C(=O)N1c1nccs1
- T/C [1]: 100 % of control
- T/C [2]: 94 % of control
- T/C [3]: 90 % of control

SMILES: CSc1nc(SC)c2c(C)cn(COCCOC(=O)c3ccccc3)c2n1
- T/C (dose: 100.0 mg/kg/injection, schedule: Q01DX001 (ip), vehicle: saline with Tween-80): 104 % of control
- T/C (dose: 200.0 mg/kg/injection, schedule: Q01DX001 (ip), vehicle: saline with Tween-80): 100 % of control
- T/C (dose: 400.0 mg/kg/injection, schedule: Q01DX001 (ip), vehicle: saline with Tween-80): 91 % of control

SMILES: CN1C(=O)NC(=O)C(=C2C=C(c3ccccc3)C(C#N)(c3ccccc3)C(c3ccccc3)=C2)C1=O (configuration not stated)
- T/C [7]: 97 % of control
- T/C [8]: 97 % of control
- T/C [9]: 101 % of control

SMILES: O=C1N=C2SCCN2C1(c1ccccc1)c1ccccc1
- T/C (dose: 25.0 mg/kg/injection, schedule: Q04DX003 (ip), vehicle: Klucel (hydroxypropylcellulose) (HPC)): 100 % of control
- T/C [4]: 100 % of control
- T/C [5]: 92 % of control
- T/C [6]: 109 % of control
- T/C (dose: 400.0 mg/kg/injection, schedule: Q04DX003 (ip), vehicle: Klucel (hydroxypropylcellulose) (HPC)): 103 % of control

SMILES: COC1(OC)OC(c2ccccc2)=C(C#N)C(c2ccc(Cl)cc2)C1(OC)OC (configuration not stated)
- T/C (dose: 60.0 mg/kg/injection, schedule: Q01DX005 (ip), vehicle: Klucel (hydroxypropylcellulose) (HPC)): 96 % of control
- T/C (dose: 120.0 mg/kg/injection, schedule: Q01DX005 (ip), vehicle: Klucel (hydroxypropylcellulose) (HPC)): 94 % of control
- T/C (dose: 240.0 mg/kg/injection, schedule: Q01DX005 (ip), vehicle: Klucel (hydroxypropylcellulose) (HPC)): 88 % of control

SMILES: OCC1SC(O)C(O)C(O)C1O (configuration not stated)
- T/C (dose: 120.0 mg/kg/injection, schedule: Q##DX005 (ip), vehicle: saline): 97 % of control
- T/C (dose: 240.0 mg/kg/injection, schedule: Q##DX005 (ip), vehicle: saline): 92 % of control
- T/C (dose: 600.0 mg/kg/injection, schedule: Q01DX001 (ip), vehicle: saline): 102 % of control and 104 % of control
- T/C (dose: 1200.0 mg/kg/injection, schedule: Q01DX001 (ip), vehicle: saline): 100 % of control and 104 % of control

SMILES: CCCCCCCCCCCCCCCCCN1CCS(=O)(=O)CC1
- T/C (dose: 50.0 mg/kg/injection, schedule: Q01DX009 (ip), vehicle: Klucel (hydroxypropylcellulose) (HPC)): 100 % of control
- T/C (dose: 100.0 mg/kg/injection, schedule: Q01DX009 (ip), vehicle: Klucel (hydroxypropylcellulose) (HPC)): 94 % of control
- T/C (dose: 200.0 mg/kg/injection, schedule: Q01DX009 (ip), vehicle: Klucel (hydroxypropylcellulose) (HPC)): 88 % of control

SMILES: N#CCCn1ccc2ccccc21
- T/C (dose: 100.0 mg/kg/injection, schedule: Q04DX003 (ip), vehicle: other): 113 % of control
- T/C (dose: 200.0 mg/kg/injection, schedule: Q04DX003 (ip), vehicle: other): 100 % of control
- T/C (dose: 400.0 mg/kg/injection, schedule: Q04DX003 (ip), vehicle: other): 90 % of control
